Test results reported in US5935944A, “Formulation for I.V. administration of the boron delivery drug, boronophenylalanine (BPA)” (Neutron Technology Corporation, priority 1996, dated 1999).
Values after ≈ are worked out from the molar mass of the structure shown.

Tests used:
cancer cells = conditions: apparently by amino acid transport system uptake; cited from earlier work
[1] = pH 7.4; background statement; cited from earlier work

Method for physchem: For solubility determinations, an excess of BPA was always used. All formulations were sonicated (ultrasonic wave treatment), adjusted to a final pH of 7.4, and filtered through a 0.22 micron filter. The BPA concentration of filtered solutions was calculated from B levels which were measured by inductively coupled plasma atomic emission spectrometry. […] Unless otherwise specified, BPA and B levels are reported as mean±standard error of the mean (SEM) of three experiments.

- solubility (physchem; buffer, pH 7.4, aqueous buffer): 2200 ± 400 µg/mL (≈ 10.5 mM)
- solubility (physchem; water, pH 7.4, water): 1150 to 3700 µg/mL (≈ 5.5 to 17.7 mM)
Compound: NC(Cc1ccc(B(O)O)cc1)C(=O)O (stereo not shown) [BPA, P-boronophenylalanine]
- selective accumulation in cancer cells (cancer cells): does seem to selectively accumulate in cancer cells
- water solubility at physiological pH [1]: < 4 ppm
